Test results reported in patent publication US6608032B1, “Medicinal compositions” (Takara Shuzo Co., Ltd., priority 1999, dated 2003).

Columns and labels:
[1] = test system: heme oxygenase 1 protein; test: Heme oxygenase 1 induction in RAW264.7 cells (Western blot); assay type: cell-based; set-up: key: − represents no band observed; increase in the intensity of the band is represented as follows:+−<+<++; increase in the intensity of the band is represented as follows:+−<+<++; increase in the intensity of the band is represented as follows:+−<+<++; conditions: positive control, 5 μl of 3 mM solution in dimethyl sulfoxide per 5 ml well; 15 hours
Method: RAW264.7 cells (ATCC TIB 71) were suspended in Dulbecco's modified Eagle's medium (Bio Whittaker, 12-604F) containing 10% fetal calf serum (Gibco) at a concentration of 3×10^5 cells/ml. 5 ml of the suspension was added to each well of a 6-well microtiter plate and the plate was incubated at 37° C. overnight in the presence of 5% CO2. 50 μl of a solution containing agarobiose or agarohexaose in Referential Example 1 at a concentration of 20 mM, 10 mM or 5 mM in water was added to the well. The plate was incubated for 15 hours. A positive control for heme oxygenase 1 induction in which 5 μl of 3 mM solution of 15-deoxy-Δ12,14 prostaglandin J2 (Cayman Chemical, 18570) in dimethyl sulfoxide was added, and a negative control in which water was added were provided. The cells were recovered by detaching the cells from the plate using a scraper and suspended in 0.1 M tris-HCl buffer (pH 7.5) containing 0.05 mM pepstatin A (Sigma, P5318), 0.2 mM leupeptin (Sigma, L2884), 1 mM phenylmethylsulfonyl fluoride (Nacalai Tesque, 273-27), 10 mm ethylenediaminetetraacetic acid disodium salt and 0.1% Triton X-100. A supernatant obtained by centrifuging the suspension after freezing and thawing was used as a protein fraction. The content of protein in the protein fraction was determined using Micro BCA Protein Assay Reagent (a product of Pierce sold by Takara Shuzo, P7411). A sample from the protein fraction prepared as described above was mixed with an equal volume of 0.125 M tris-hydrochloride buffer (pH 6.8) containing 4% sodium lauryl sulfate (SDS), 2% 2-mercaptoethanol, 0.001% Bromophenol Blue and 20% glycerol. After treatment at 100° C. for 5 minutes, a portion corresponding to 10 μg of protein was loaded on 12.5% SDS-polyacrylamide gel and electrophoresed at a constant current of 20 mA. After electrophoresis, the gel was transferred to a PVDF membrane (Millipore, IPVH000 10) at a constant voltage of 15 V for 25 minutes using a blotting buffer (containing 48 mM tris, 39 mM glycine, 20% methanol and 0.0375% SDS) and Trans-Blot SD Cell Semi-Dry blotting apparatus (Bio-Rad) according to the attached protocol. After transferring, the PVDF membrane was blocked in a solution of Block Ace (Dainippon Pharmaceutical, UK-B25) at 4° C. overnight. After blocking, the membrane washed three times in phosphate buffered saline containing 0.1% Tween 20 for 15 minutes with gentle shaking. The membrane was reacted in phosphate buffered saline containing 10% Block Ace, 0.1% Tween 20 and 200 ng/ml of anti-heme oxygenase 1 antibody (N-19; Santa Cruz, sc-7696) at room temperature for 1 hour with gentle shaking, and then washed three times in phosphate buffered saline containing 0.1% Tween 20 for 15 minutes with gentle shaking. The membrane was reacted in phosphate buffered saline containing 10% Block Ace, 0.1% Tween 20 and 0.1% peroxidase-labeled rabbit anti-goat IgG (H+L) antibody (Zymed, 61-1620) at room temperature for 1 hour with gentle shaking, and then washed five times in phosphate buffered saline containing 0.1% Tween 20 for 15 minutes with gentle shaking. The PVDF membrane was stained using Western Blot Chemiluminescence Reagent Plus (a product of NEN Life Science Products sold by Daiichi Pure Chemicals, NEL103) according to the attached protocol and exposed to an X-ray film (Kodak, CAT165 1454). After exposure, the film was developed using FPM800 (Fuji Film).
The intensity of the band depended on the concentration of agarobiose or agarohexaose. In the table, the intensity of the band for heme oxygenase 1 protein is expressed by the mark+. Specifically, − represents no band observed, and increase in the intensity of the band is represented as follows:+−<+<++.

[2] = test system: α-glucosidase; test: α-glucosidase inhibition with p-nitrophenyl-α-D-glucopyranoside; assay type: biochemical, S. cerevisiae
Method: (1) An α-glucosidase activity was measured by allowing α-glucosidase to act on p-nitrophenyl-α-D-glucopyranoside (a chromogenic substrate) and calorimetrically quantifying 4-nitrophenol released by hydrolysis.
10 μl of α-glucosidase solution [40 mU/ml, derived from S. cerevisiae, Sigma, dissolved in 10 mM phosphate buffer (pH 7.2 at 37° C.)] and 10 μl of a solution containing a test sample dissolved in 10 mM phosphate buffer (pH 7.2 at 37° C.) were mixed. 80 μl of a 1.5 mg/ml substrate solution [Sigma, dissolved in 10 mM phosphate buffer (pH 7.2 at 37° C.)] was added thereto to initiate the reaction. After reacting at 37° C. for 40 minutes, the absorbance at 410 nm was measured using Shimadzu uv2200. The remaining activity therein was calculated defining the activity observed without the addition of test sample as 100%.
Agarobiose, agarotetraose, agarohexaose and agarooctaose used as test samples were those prepared in Referential Example 1. Commercially available products of anhydrogalactose (Funakoshi), neoagarobiose (Sigma), neoagarotetraose (Funakoshi) and neoagarohexaose (Funakoshi) were used.

[3] = test system: RAW264.7 cells; test: Prostaglandin E2 generation by crude enzyme fraction of RAW264.7 cells pre-treated with sample and LPS; assay type: cell-based; conditions: cells treated with 200 μl of 10 mM sample per 20 ml, 5 hours before LPS
Method: (1) RAW264.7 cells (ATCC TIB 71) were suspended in Dulbecco's modified Eagle's medium (Bio Whittaker, 12-604F) containing 10% fetal calf serum (Gibco) at a concentration of 1×10^6 cells/ml. 20 ml of the suspension was added to a 10-cm Petri dish and the dish was incubated at 37° C. overnight in the presence of 5% CO2. 200 μl of a solution containing agarohexaose or DGE (obtained in Example 15-(2) below) at a concentration of 10 mM in water was added to the dish. The dish was incubated for 5 hours. 200 μl of a solution containing lipopolysaccharide (LPS, Sigma, L-2012) at a concentration of 100 μg/ml in water was added thereto. The dish was incubated for additional 12 hours. As a control, 200 μL of water was added in place of the sample. The cells were recovered by detaching the cells from the plate using a scraper and suspended in 0.1 M tris buffer (pH 8.0) containing 1 μg/ml pepstatin A (Sigma, P5318), 1 μg/ml leupeptin (Sigma, L2884) and 1 mM phenylmethylsulfonyl fluoride (Nacalai Tesque, 273-27). The cell membrane was destroyed by sonication. A supernatant collected by centrifugation was used as a crude enzyme fraction. The content of protein in the crude enzyme fraction was determined using Micro BCA Protein Assay Reagent (a product of Pierce sold by Takara Shuzo, P7411). 2.5 μL of 200 mM aqueous solution of glutathione (Nacalai Tesque, 170-50), 2.5 μL of a suspension containing L-adrenaline (Nacalai Tesque, 010-04) at a concentration of 200 mM in water, and 1 μL of 3 mM solution of arachidonic acid (Cayman, 90010.1) or 1 μL of 100 μg/mL solution of prostaglandin H2 (Cayman, 17020) were added to 100 μL of the sample from the crude enzyme fraction prepared as described above. The mixture was reacted at 37° C. for 30 minutes. The reaction was stopped by heating at 100° C. for 2 minutes. The content of prostaglandin E2 in the reaction mixture was measured using Prostaglandin E2 ELISA Kit (Neogen, 404110).

[4] = test system: enzymes involved in the synthesis of prostaglandin E2 from arachidonic acid; test: Prostaglandin E2 generation from arachidonic acid, sample added directly to crude enzyme fraction; assay type: biochemical; conditions: 1 μL of 100 mM agarobiose, 100 mM agarohexaose, 10 mM DGE or 13 mM nimesulide added to 100 μL crude enzyme fraction; FIG. 15
Method: 2.5 μL of 200 mM aqueous solution of glutathione, 2.5 μL of a suspension containing L-adrenaline at a concentration of 200 mM in water, and 1 μL of 100 mM aqueous solution of agarobiose, 100 mM aqueous solution of agarohexaose or 10 mM aqueous solution of DGE as a sample were added to 100 μL of the control sample from the crude enzyme fraction prepared in Example 15. 1 μL of water was added as a negative control. 1 μL of 13 mM nimesulide (Cayman, 70640) solution was added as a positive control. 1 μL of 3 mM arachidonic acid solution was then added to start the reaction. The mixture was reacted at 37° C. for 5 minutes. The reaction was stopped by heating at 100° C. for 2 minutes. The content of prostaglandin E2 in the reaction mixture was measured using Prostaglandin E2 ELISA Kit.

Row | Compound | Intensity of band for heme oxygenase 1 protein [1] | Activity of inhibiting α-glucosidase (% remaining activity) ([2]; 5 μM) | Activity of inhibiting α-glucosidase (% remaining activity) ([2]; 50 μM) | Activity of inhibiting α-glucosidase (% remaining activity) ([2]; 500 μM) | Activity of inhibiting α-glucosidase (% remaining activity) ([2]; 1000 μM) | Activity of inhibiting α-glucosidase (% remaining activity) ([2]; 5000 μM) | production of prostaglandin E2, arachidonic acid added ([3]; FIG. 13) | production of prostaglandin E2, prostaglandin H2 added ([3]; FIG. 14) | production of prostaglandin E2 from arachidonic acid [4]
1 | CCCCC/C=C/C=C1/C(=O)C=C[C@@H]1C/C=C\CCCC(=O)O [15-deoxy-Δ12,14 prostaglandin J2, reference compound] | + | – | – | – | – | – | – | – | –
2 | OC1O[C@@H]2CO[C@@H]([C@H]2O)[C@H]1O (stereo partly drawn) [Anhydrogalactose, 3,6-anhydrogalactopyranose] | – | 100% | 100% | 100% | 100% | 100% | – | – | –
3 | O=C1C=CC(CO)OC1O [DGE, L-glycero-1,5-epoxy-1αβ, 6-dihydroxy-cis-hex-3-en-2-one] | – | – | – | – | – | – | suppressed as compared with the control | suppressed as compared with the control | not suppressed
4 | OC[C@H]1OC(O)[C@H](O)[C@@H](O[C@@H]2O[C@H]3CO[C@@H]([C@@H]2O)[C@@H]3O)[C@H]1O (stereo partly drawn) [Neoagarobiose, neoagarobiose, reference compound] | – | 100% | 100% | 100% | 100% | 100% | – | – | –
5 | OC[C@H]1O[C@@H](O)[C@H](O)[C@@H](O[C@@H]2O[C@H]3CO[C@@H]([C@@H]2O)[C@@H]3O[C@@H]2O[C@H](CO)[C@H](O)[C@H](O[C@@H]3O[C@H]4CO[C@@H]([C@@H]3O)[C@@H]4O[C@@H]3O[C@H](CO)[C@H](O)[C@H](O[C@@H]4O[C@H]5CO[C@@H]([C@@H]4O)[C@@H]5O)[C@H]3O)[C@H]2O)[C@H]1O [Neoagarohexaose, neoagarohexaose, reference compound] | – | 100% | 100% | 93% | 71% | 8% | – | – | –
6 | OC[C@H]1O[C@@H](O)[C@H](O)[C@@H](O[C@@H]2O[C@H]3CO[C@@H]([C@@H]2O)[C@@H]3O[C@@H]2O[C@H](CO)[C@H](O)[C@H](O[C@@H]3O[C@H]4CO[C@@H]([C@@H]3O)[C@@H]4O)[C@H]2O)[C@H]1O [Neoagarotetraose, neoagarotetraose, reference compound] | – | 100% | 93% | 89% | 76% | 42% | – | – | –
7 | CS(=O)(=O)Nc1ccc([N+](=O)[O-])cc1Oc1ccccc1 [nimesulide, reference compound] | – | – | – | – | – | – | – | – | suppressed
8 | agarooctaose | – | 91% | 90% | 32% | 26% | 11% | – | – | –
